Assays:
[1] = tested on: MCF-7 human breast adenocarcinoma cells; HRE-bla HCT116 cell line (colorectal carcinoma); experiment: Cell proliferation assay (ATPlite luminescence); assay type: cell-based; details: Homo sapiens, ATPlite readout, cell line not given
Description: MCF-7 human breast adenocarcinoma cells were obtained from ATCC (LGC Promochem). The CellSensor® HRE-bla HCT116 cell line (colorectal carcinoma) was obtained from Invitrogen.
Cells were grown under humidified 95% air, 5% CO2 at 37° C. in Dulbecco's modified Eagle's medium (DMEM: MCF-7) or McCoy's 5A medium (HRE-bla HCT116) supplemented with 10% fetal bovine serum (FBS), 100 U/ml penicillin and 100 μg/ml streptomycin, 2 mM L-glutamine, and blasticidin at 5 μg/ml as a selection marker (for the HRE-bla HCT116 cell line only).
Cell proliferation experiments were carried out in 96-well tissue culture plates with seeding of 2000 cells/well in 100 μl of the relevant medium. Cells were subsequently incubated under the conditions mentioned for 24 h prior to addition of compounds.
To determine the degree of inhibition of cell proliferation, cells were treated with ATPlite solution according to the manufacturer's instructions (PerkinElmer, ATPlite 1-step Luminescence ATP Detection Assay System) and luciferase readout measured on an Envision HTS multilabel plate reader (PerkinElmer) in luminescence mode according to established protocols. Raw data were imported into an ActivityBase database (IDBS, ID Business Solutions) and EC50 values calculated using the IDBS program ActivityBase XE.

[2] = biological target: T1, tubulin (from porcine brain) (Sus scrofa, UniProt P02550+P02554); experiment: Inhibition of in vitro tubulin polymerization (OD 340 nm, 90 min); assay type: biochemical; details: final absorbance at 90 min vs vehicle control, read-out: tubulin inhib. (at 10 μM)
T1 construct: prepared in-house from porcine brain using a standard procedure involving cycles of polymerization/de-polymerization; from tissue; host or cells: porcine brain
Description: To assess the degree of inhibition of in vitro tubulin polymerization, a tubulin solution (prepared in-house from porcine brain using a standard procedure involving cycles of polymerization/de-polymerization, (see Castoldi & Popov (2003) Protein Expr. Purif. 32(1): 83-88), was incubated with varying concentrations of compounds under polymerizing conditions and kinetic experiments performed to determine the amount of polymerization (as measured by changes in OD at 340 nm) taking place over a 90 min period.
Compound solutions were diluted in double-distilled water to yield final 10× solutions containing 5% DMSO. 5 μl solutions were then added to the wells on a 384-well clear-bottom plate (Corning #3711, Corning Inc.) in preparation for the addition of tubulin. The tubulin solution (19.6 mg/ml, in 80 mM K-PIPES [pH 6.8], 1 mM MgCl2, 1 mM EGTA) was re-suspended to a final concentration of 4 mg/ml with ice cold G-PEM buffer (80 mM PIPES [pH 6.8], 2 mM MgCl2, 0.5 mM EGTA, 10% glycerol, 1 mM GTP) and maintained on ice for at least 1 min. 50 μl was then added to the pre-dispensed compound solutions, the plate orbital shaken on a medium setting for 5s, and the first measurement begun immediately.
Experiments were carried out on a Safire^2 ™ monochromator (Tecan) preset to a stable temperature of 37° C.; the degree of polymerization was determined by measuring the absorbance of the solutions at 340 nm every minute over the 90 min cycle. Reported inhibition values were based on the final absorbance at 90 min and calculated with reference to a vehicle control (0.5% DMSO) using the minimum and maximum signals obtained for this sample.

[3] = tested on: HIF mediated transcription; experiment: Inhibition of activation of HIF mediated transcription under hypoxic conditions (CellSensor HRE-bla HCT-116 reporter, DFO-induced); assay type: cell-based; details: Homo sapiens; HRE-bla HCT-116 reporter cells, deferoxamine-induced hypoxia, 24 h
Description: Inhibition of an activated HIF signaling response under chemically-induced hypoxic conditions due to compound treatment was determined using the CellSensor® […] HCT-116 stably transfected reporter cell line from Invitrogen according to the manufacturer's instructions. HIF is a transcriptional factor composed of the constitutively expressed HIF 1β subunit and one of three HIFα subunits (HIF1α, HIF2α, HIF3α). This assay is responsive towards HIFα activity in general. In one example, HIF-1, when stabilized by hypoxic conditions, upregulates several genes to promote cell survival in low-oxygen conditions. These include glycolysis enzymes, which allow ATP synthesis in an oxygen-independent manner, and vascular endothelial growth factor (VEGF), which promotes angiogenesis. HIF-1 acts by binding to HIF-responsive elements (HREs) in promoters that generally contain the sequence NCGTG.
Cells were maintained as described previously and seeded into 384-well, clear-bottom plates (Corning 3712) at 15000 cells/well in 32 μl assay medium (Opti-MEM [Invitrogen], 0.5% FBS, 100 U/ml penicillin, 100 μg/ml streptomycin, 0.1 mM non-essential amino acids [NEAA], 1 mM sodium pyruvate, 5 mM HEPES [pH 7.3]). Following a 2 h incubation period, compounds (4 μl) were subsequently added to the cells at 10× concentrations in 5% DMSO and incubated under normal conditions for 30 min. To induce hypoxic conditions, 4 μl of a 2 mM deferoxamine (DFO) solution was added to the cells followed by 24 h incubation under standard assay conditions (as described). Control wells included wells containing only medium (no cells) and wells treated with 0.5% DMSO instead of compound.
Prior to the readout, the Substrate Loading Solution was prepared as described in the manufacturer's protocol and 10 μl added to each well. Following a further 2 h incubation period at room temperature and in the dark, fluorescence was measured at two wavelengths (blue channel: ex. 409 nm, em. 460 nm; green channel: ex. 409 nm, em. 530 nm) on a PerkinElmer Envision HTS. For the analysis, the average signal of the cell-free wells at 460 nm and 530 nm was first subtracted from the blue and green channel data, respectively. The blue/green emission ratios were then calculated for each well, dividing the background-corrected blue emission values by the background-corrected green emission values. IC50 values were determined from these ratios using GraphPad Prism (Prism 5, GraphPad software, Inc.).

T1 sequence (P02550 whole entry): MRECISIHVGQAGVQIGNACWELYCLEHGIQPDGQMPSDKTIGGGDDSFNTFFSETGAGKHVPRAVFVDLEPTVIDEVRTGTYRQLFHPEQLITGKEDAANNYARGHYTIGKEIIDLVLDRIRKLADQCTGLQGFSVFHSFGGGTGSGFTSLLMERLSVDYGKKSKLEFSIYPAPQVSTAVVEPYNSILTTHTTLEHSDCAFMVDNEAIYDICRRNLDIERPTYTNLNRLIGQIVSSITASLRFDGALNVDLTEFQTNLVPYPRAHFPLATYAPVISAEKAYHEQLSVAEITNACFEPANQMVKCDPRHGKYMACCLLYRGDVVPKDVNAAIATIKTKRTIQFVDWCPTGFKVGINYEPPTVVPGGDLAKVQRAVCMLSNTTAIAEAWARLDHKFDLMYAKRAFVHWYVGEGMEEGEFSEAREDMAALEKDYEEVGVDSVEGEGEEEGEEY
T1 sequence (P02554 whole entry): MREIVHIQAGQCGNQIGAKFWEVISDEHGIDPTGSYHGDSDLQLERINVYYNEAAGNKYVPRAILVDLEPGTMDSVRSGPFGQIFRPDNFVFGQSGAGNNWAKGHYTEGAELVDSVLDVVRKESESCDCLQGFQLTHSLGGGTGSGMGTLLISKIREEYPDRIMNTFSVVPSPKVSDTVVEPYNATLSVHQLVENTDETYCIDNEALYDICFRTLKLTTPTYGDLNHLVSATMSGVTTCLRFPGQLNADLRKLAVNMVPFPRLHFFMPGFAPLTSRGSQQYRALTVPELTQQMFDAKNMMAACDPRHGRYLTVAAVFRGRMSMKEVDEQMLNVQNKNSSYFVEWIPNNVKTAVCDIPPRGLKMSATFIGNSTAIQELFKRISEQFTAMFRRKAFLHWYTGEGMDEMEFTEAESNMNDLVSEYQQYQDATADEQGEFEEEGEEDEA

EC50 [1] [µM] | inhibition at 10 µM [2] [%] | EC50 [3] [µM] | Compound
< 0.5 | 20 to 50 | < 0.5 | CCc1ccc(S(=O)(=O)Nc2cc(-c3ccc(C#N)s3)ccc2C)s1 [Example 1, 5-Ethyl-thiophene-2-sulfonic acid [5-(5-cyano-thiophen-2-yl)-2-methyl-phenyl]-amide]
< 0.5 | < 20 | < 0.5 | COc1ccc(S(=O)(=O)Nc2cc(-c3ccc(C#N)s3)ccc2C)cn1 [Example 2, 6-Methoxy-pyridine-3-sulfonic acid [5-(5-cyano-thiophen-2-yl)-2-methyl-phenyl]-amide]
